Key:
[1] = tested on: tau accumulated in the brain with AD; experiment: In vitro autoradiography using autopsied brain tissue of Alzheimer's disease patient; format: binding, human
Experimental: (Evaluation 1) In Vitro Autoradiography Using Autopsied Brain Tissue of Alzheimer's Disease Patient (1) In Vitro Autoradiography
Autopsied brain tissue sections of an Alzheimer's disease (AD) patient (sections from a frontal lobe site and a temporal lobe site, 6 μm) were used, which were provided from Graduate School of Medicine, Kyoto University and National Cerebral and Cardiovascular Center Hospital. Deparaffinization treatment was performed by washing with xylene (15 min×2), ethanol (1 min×2), a 90 vol % aqueous ethanol solution (1 min×1), an 80 vol % aqueous ethanol solution (1 min×1), a 70 vol % aqueous ethanol solution (1 min×1), and purified water (2.5 min×2). A 10 vol % aqueous ethanol solution of each radioactive iodine-labeled BIP derivative compound (370 kBq/mL) obtained by the method shown in Example 7 was added thereto, and the tissue sections were incubated at room temperature for 2 hours. The tissue sections were washed with a 50 vol % aqueous ethanol solution (1 hr×1), then exposed to an imaging plate (BAS-SR2025 manufactured by Fujifilm Corp.), and analyzed using a bioimaging analyzer (bioimaging analyzer BAS-5000 manufactured by Fujifilm Corp.). Multi Gauge manufactured by Fujifilm Corp. was used in quantitative analysis.
FIGS. 5E and 5F show the results obtained using [^125I]BIP-NMe2. FIGS. 5G and 5H show the results obtained using [^125I]BIP-OMe. FIGS. 5I and 5J show the results obtained using [^125I]BIP-Me. FIGS. 5E, 5G, and 5I show the results obtained using the brain tissue section of the frontal lobe. FIGS. 5F, 5H, and 5J show the results obtained using the brain tissue section of the temporal lobe.
Tau and Aβ were immunostained using sections adjacent to the autopsied AD brain tissue sections used in autoradiography. An anti-phosphorylated tau monoclonal antibody (AT8, manufactured by Thermo Fisher Scientific Inc.) was used as a primary antibody in the immunostaining of tau, and an anti-Aβ1-42 monoclonal antibody (BC05, manufactured by Wako Pure Chemical Industries, Ltd.) was used as a primary antibody in the immunostaining of Aβ. Deparaffinization treatment was performed by washing with xylene (15 min×2), ethanol (1 min×2), a 90 vol % aqueous ethanol solution (1 min×1), an 80 vol % aqueous ethanol solution (1 min×1), a 70 vol % aqueous ethanol solution (1 min×1), and purified water (2.5 min×2). The antigens were retrieved by autoclaving (15 min) in a 0.01 mol/L citrate buffer solution (pH 6.0) and formic acid treatment (5 min). The tissue sections were washed with running water (5 min) and then washed with PBS-Tween 20 (2 min×1). The tissue sections were reacted with primary antibody solutions at room temperature for 1 hour and then washed with PBS-Tween 20 (5 min×3). The tissue sections were reacted with Histofine Simple Stain MAX-PO (MULTI) (manufactured by Nichirei Biosciences Inc.) at room temperature for 30 minutes and then washed with PBS-Tween 20 (3 min×3) and TBS (5 min×1). Finally, the tissue sections were reacted with a DAB solution at room temperature for 1 minute. The tissue sections were washed with distilled water (1 min×1) to terminate the reaction. The brain tissue sections were mounted on slides and then observed under a microscope (BZ-9000 manufactured by Keyence Corporation).
FIGS. 5A and 5B show the results obtained using the brain tissue section of the frontal lobe. FIGS. 5C and 5D show the results obtained using the brain tissue section of the temporal lobe. FIGS. 5A and 5C show the results of immunostaining with the antibody against tau. FIGS. 5B and 5D show the results of immunostaining with the antibody against Aβ.

[2] = Evaluation of in vivo radioactivity distribution in normal mouse; details: normal ddY male mice, tail vein; for radioactivity distribution, Blood / radioactivity distribution, Brain / radioactivity distribution, Heart / radioactivity distribution, Intestine / radioactivity distribution, Kidney / radioactivity distribution, Liver / radioactivity distribution, Lung / radioactivity distribution, Pancreas / radioactivity distribution, Spleen / radioactivity distribution, Stomach / radioactivity distribution, Thyroid gland: mean (SD)
Experimental: (Evaluation 2) Evaluation of In Vivo Radioactivity Distribution in Normal Mouse
Each compound of [^125I]BIP-NMe2, [^125I]BIP-OMe, and [^125I]BIP-Me synthesized according to the method shown in Example 7 was diluted with saline containing 10 vol % ethanol and 0.1 vol % Tween 80. Each radioactive iodine-labeled BIP derivative compound was administered to a group of 5-week-old ddY male mice (26 to 28 g; each group involved 5 mice) from the tail veins thereof at 19.6 to 29.4 kBq (100 μL) per mouse. After 2, 10, 30, or 60 minutes, the mice were slaughtered. After blood collection, the organs were taken out, and their weights and radioactivity were measured.
In Tables 2 to 4, the numerical values shown in the column “Time after administration” are means of % ID for the stomach and the thyroid gland and means of % ID/g for the other tissues with standard deviation (SD) shown in parenthesis.

With `Cc1ccn2c(c1)nc1cc([125I])ccc12` [[^125I]BIP-Me, 7-[^125I]iodo-3-methylbenzo[4,5]imidazo[1,2-a]pyridine] the “radioactivity accumulation in the brain tissue section of the frontal lobe” value ([1]; AD patient autopsied brain section, frontal lobe, 370 kBq/mL, 2 hours room temperature) was “none”, the “radioactivity accumulation in the brain tissue section of the temporal lobe” value ([1]; AD patient autopsied brain section, temporal lobe, 370 kBq/mL, 2 hours room temperature) was “exhibited radioactivity accumulation in only the brain tissue section of the temporal lobe” and the “nonspecific binding to the brain white matter” value ([1]; AD patient autopsied brain sections) was “low”. The “visualization of tau (autoradiography compared with tau and Aβ immunostaining)” value ([1]; AD patient temporal lobe section, adjacent sections immunostained (AT8, BC05)) was “clearly visualizes tau accumulated in the brain with AD”, the “clearance from the brain” value [2] was “rapid clearance from the brain” and the “transfer to the brain early after administration” value [2] was “high transfer to the brain”. The “radioactivity distribution, Blood” value ([2]; 2 min after administration) was 3.63(0.19) % ID/g, the “radioactivity distribution, Brain” value ([2]; 2 min after administration) was 4.28(0.50) % ID/g and the “radioactivity distribution, Heart” value ([2]; 2 min after administration) was 4.40(0.59) % ID/g. For the same compound, the “radioactivity distribution, Intestine” value ([2]; 2 min after administration) was 3.38(0.55) % ID/g, the “radioactivity distribution, Kidney” value ([2]; 2 min after administration) was 7.32(0.61) % ID/g and the “radioactivity distribution, Liver” value ([2]; 2 min after administration) was 19.7(2.89) % ID/g. For the same compound, the “radioactivity distribution, Lung” value ([2]; 2 min after administration) was 6.54(0.76) % ID/g, the “radioactivity distribution, Pancreas” value ([2]; 2 min after administration) was 3.85(0.39) % ID/g and the “radioactivity distribution, Spleen” value ([2]; 2 min after administration) was 4.22(0.43) % ID/g. The “radioactivity distribution, Stomach” value ([2]; 2 min after administration) was 2.68(0.25) % ID, the “radioactivity distribution, Thyroid gland” value ([2]; 2 min after administration) was 0.06(0.03) % ID and the “radioactivity distribution, Blood” value ([2]; 10 min after administration) was 2.37(0.22) % ID/g. For the same compound, the “radioactivity distribution, Brain” value ([2]; 10 min after administration) was 0.94(0.17) % ID/g, the “radioactivity distribution, Heart” value ([2]; 10 min after administration) was 1.61(0.19) % ID/g and the “radioactivity distribution, Intestine” value ([2]; 10 min after administration) was 14.2(5.56) % ID/g. The “radioactivity distribution, Kidney” value ([2]; 10 min after administration) was 6.75(0.83) % ID/g, the “radioactivity distribution, Liver” value ([2]; 10 min after administration) was 13.7(1.67) % ID/g and the “radioactivity distribution, Lung” value ([2]; 10 min after administration) was 2.37(0.31) % ID/g. For the same compound, the “radioactivity distribution, Pancreas” value ([2]; 10 min after administration) was 1.38(0.29) % ID/g, the “radioactivity distribution, Spleen” value ([2]; 10 min after administration) was 1.94(0.29) % ID/g and the “radioactivity distribution, Stomach” value ([2]; 10 min after administration) was 6.52(1.23) % ID. The “radioactivity distribution, Thyroid gland” value ([2]; 10 min after administration) was 0.03(0.02) % ID, the “radioactivity distribution, Blood” value ([2]; 30 min after administration) was 1.53(0.52) % ID/g and the “radioactivity distribution, Brain” value ([2]; 30 min after administration) was 0.14(0.03) % ID/g. For the same compound, the “radioactivity distribution, Heart” value ([2]; 30 min after administration) was 0.66(0.10) % ID/g, the “radioactivity distribution, Intestine” value ([2]; 30 min after administration) was 19.5(2.03) % ID/g and the “radioactivity distribution, Kidney” value ([2]; 30 min after administration) was 4.05(1.19) % ID/g. The “radioactivity distribution, Liver” value ([2]; 30 min after administration) was 7.32(0.71) % ID/g, the “radioactivity distribution, Lung” value ([2]; 30 min after administration) was 1.14(0.11) % ID/g and the “radioactivity distribution, Pancreas” value ([2]; 30 min after administration) was 0.50(0.08) % ID/g. The “radioactivity distribution, Spleen” value ([2]; 30 min after administration) was 0.60(0.13) % ID/g, the “radioactivity distribution, Stomach” value ([2]; 30 min after administration) was 7.05(2.50) % ID and the “radioactivity distribution, Thyroid gland” value ([2]; 30 min after administration) was 0.02(0.00) % ID. For the same compound, the “radioactivity distribution, Blood” value ([2]; 60 min after administration) was 0.77(0.12) % ID/g, the “radioactivity distribution, Brain” value ([2]; 60 min after administration) was 0.04(0.00) % ID/g and the “radioactivity distribution, Heart” value ([2]; 60 min after administration) was 0.36(0.07) % ID/g. For the same compound, the “radioactivity distribution, Intestine” value ([2]; 60 min after administration) was 28.7(5.09) % ID/g, the “radioactivity distribution, Kidney” value ([2]; 60 min after administration) was 2.19(1.23) % ID/g and the “radioactivity distribution, Liver” value ([2]; 60 min after administration) was 4.69(0.54) % ID/g. For the same compound, the “radioactivity distribution, Lung” value ([2]; 60 min after administration) was 0.65(0.11) % ID/g, the “radioactivity distribution, Pancreas” value ([2]; 60 min after administration) was 0.40(0.24) % ID/g and the “radioactivity distribution, Spleen” value ([2]; 60 min after administration) was 0.36(0.10) % ID/g. For the same compound, the “radioactivity distribution, Stomach” value ([2]; 60 min after administration) was 7.43(1.29) % ID and the “radioactivity distribution, Thyroid gland” value ([2]; 60 min after administration) was 0.01(0.00) % ID.
